Results taken from ChEMBL document CHEMBL1201862, “PubChem BioAssay data set” (2004).
Active and inactive are the calls of the source.

Experiments:
Keap1/Nrf2 = Keap1/Nrf2 (Homo sapiens, UniProt Q14145); assay: disruptors of Keap1 binding to Nrf2 peptide – biochemical, fluorescence polarization, cherry-picked samples, dose response (AID 588683)
Beta Lactamase = Beta Lactamase (Pseudomonas aeruginosa, UniProt Q932Y6); assay: BLA reporter interference, concentration series – BLA reporter cells, FRET fluorescence, artefact control for TLR9-MyD88 binding inhibitor project, dose response (AID 588341); assay type: cell-based;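 also: cell based assay in CHO-K1 cells stably expressing beta-lactamase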
ORF 73 = ORF 73 (Human herpesvirus 8, UniProt O40947); assay: KSHV LANA DNA-binding disruption – biochemical, fluorescence polarization, cherry-picked samples, dose response (AID 504725); parameters: species or system Human gammaherpesvirus 8;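 also: fluorescence polarization of a labeled DNA duplex reporting LANA DNA binding; potency is for inhibitors that block LANA binding to the DNA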
[1] = biological target: Dual specificity tyrosine-phosphorylation-regulated kinase 1A (Rattus norvegicus, UniProt Q63470); assay type: biochemical, Homo sapiens
CHO = CHO cell viability loss, potency – luminescence, cytotoxicity control for TLR9-MyD88 binding inhibitor project, dose response (AID 588339); assay type: functional, cell-based, hamster; conditions: Cricetulus griseus;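 also: CHO cells stably coexpressing TLR9 and MyD88 fusions from primary screen; compound exposure lasted 48 hours before viability readout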
Insulin-degrading enzyme [2] = biological target: T1, Insulin-degrading enzyme (Homo sapiens, UniProt P14735); assay: cellular IDE activation of Abeta substrate cleavage – fluorescence polarization, HEK cells, dose response (AID 588439); assay type: functional, cell-based
T1 sequence (P14735 whole entry): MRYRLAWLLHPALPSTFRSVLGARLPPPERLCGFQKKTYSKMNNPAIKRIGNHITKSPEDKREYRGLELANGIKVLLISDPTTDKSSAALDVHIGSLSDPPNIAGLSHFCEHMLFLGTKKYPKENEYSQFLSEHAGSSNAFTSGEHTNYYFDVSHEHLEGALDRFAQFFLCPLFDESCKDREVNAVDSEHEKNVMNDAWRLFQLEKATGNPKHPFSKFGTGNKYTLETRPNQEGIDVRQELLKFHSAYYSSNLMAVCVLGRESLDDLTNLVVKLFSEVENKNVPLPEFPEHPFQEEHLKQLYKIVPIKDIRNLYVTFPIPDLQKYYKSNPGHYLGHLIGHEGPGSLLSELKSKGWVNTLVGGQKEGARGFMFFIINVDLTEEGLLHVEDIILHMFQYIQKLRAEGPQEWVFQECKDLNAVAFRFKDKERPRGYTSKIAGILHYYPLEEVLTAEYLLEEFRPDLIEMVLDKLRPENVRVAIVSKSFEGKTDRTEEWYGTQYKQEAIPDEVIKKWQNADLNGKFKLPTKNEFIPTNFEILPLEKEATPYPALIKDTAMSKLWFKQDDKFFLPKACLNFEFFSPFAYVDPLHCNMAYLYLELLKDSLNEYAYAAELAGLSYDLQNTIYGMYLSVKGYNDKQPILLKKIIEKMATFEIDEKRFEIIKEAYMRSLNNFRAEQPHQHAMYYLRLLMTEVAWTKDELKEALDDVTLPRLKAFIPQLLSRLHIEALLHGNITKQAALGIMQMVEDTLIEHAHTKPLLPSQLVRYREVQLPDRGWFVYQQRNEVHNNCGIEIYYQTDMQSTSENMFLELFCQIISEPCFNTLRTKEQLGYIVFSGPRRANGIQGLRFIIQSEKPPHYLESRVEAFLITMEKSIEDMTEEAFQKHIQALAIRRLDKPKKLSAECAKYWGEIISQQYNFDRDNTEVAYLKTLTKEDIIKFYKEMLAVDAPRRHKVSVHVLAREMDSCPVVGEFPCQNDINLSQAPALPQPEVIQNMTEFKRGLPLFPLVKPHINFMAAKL

HEK293 [3] = assay: membrane integrity loss in HEK cells – cell-based, fluorescence, cytotoxicity control for IDE activator project, dose response (AID 588440); assay type: functional; conditions: Homo sapiens;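 also: cytotoxicity by LDH release measuring loss of membrane integrity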
[4] = biological target: T2, Apoptotic protease-activating factor 1 (Homo sapiens, UniProt O14727); assay type: functional
T2 sequence (O14727 whole entry): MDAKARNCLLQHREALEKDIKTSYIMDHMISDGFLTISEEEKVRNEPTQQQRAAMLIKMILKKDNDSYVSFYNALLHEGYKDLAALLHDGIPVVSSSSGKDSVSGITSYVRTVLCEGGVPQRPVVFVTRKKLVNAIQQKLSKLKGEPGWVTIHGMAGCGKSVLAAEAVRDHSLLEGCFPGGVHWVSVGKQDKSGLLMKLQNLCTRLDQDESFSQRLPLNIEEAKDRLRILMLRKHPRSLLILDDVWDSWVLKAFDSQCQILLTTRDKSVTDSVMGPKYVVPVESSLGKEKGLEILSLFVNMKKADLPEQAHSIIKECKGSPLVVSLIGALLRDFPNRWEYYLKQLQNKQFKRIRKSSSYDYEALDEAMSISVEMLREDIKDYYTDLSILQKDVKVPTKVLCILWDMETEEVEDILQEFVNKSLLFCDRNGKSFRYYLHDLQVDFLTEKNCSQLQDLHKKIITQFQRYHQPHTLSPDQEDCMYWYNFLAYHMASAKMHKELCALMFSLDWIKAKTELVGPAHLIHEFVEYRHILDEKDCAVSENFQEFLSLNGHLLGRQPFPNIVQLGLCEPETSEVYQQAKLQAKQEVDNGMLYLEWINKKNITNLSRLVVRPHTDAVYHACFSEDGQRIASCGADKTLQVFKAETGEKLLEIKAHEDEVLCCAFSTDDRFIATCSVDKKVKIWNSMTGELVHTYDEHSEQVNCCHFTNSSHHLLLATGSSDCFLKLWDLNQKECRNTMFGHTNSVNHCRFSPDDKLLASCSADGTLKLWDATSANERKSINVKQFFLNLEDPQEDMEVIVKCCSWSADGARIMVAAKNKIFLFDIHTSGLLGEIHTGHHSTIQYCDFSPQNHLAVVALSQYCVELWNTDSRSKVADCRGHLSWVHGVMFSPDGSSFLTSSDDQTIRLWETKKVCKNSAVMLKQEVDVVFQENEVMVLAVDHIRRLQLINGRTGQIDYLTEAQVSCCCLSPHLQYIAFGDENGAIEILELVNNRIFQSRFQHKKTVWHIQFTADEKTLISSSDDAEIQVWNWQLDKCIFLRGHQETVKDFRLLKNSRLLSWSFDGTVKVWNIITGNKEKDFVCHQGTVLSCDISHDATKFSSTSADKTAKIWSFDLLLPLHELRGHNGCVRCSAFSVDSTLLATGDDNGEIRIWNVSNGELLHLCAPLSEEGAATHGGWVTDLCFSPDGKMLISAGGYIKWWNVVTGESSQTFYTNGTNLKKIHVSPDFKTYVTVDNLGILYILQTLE

[5] = biological target: UDP-galactopyranose mutase (Mycobacterium tuberculosis, UniProt P9WIQ1); assay: Inhibitors of Mycobacterium tuberculosis UDP-galactopyranose mutase (UGM) enzyme Measured in Biochemical System Using Plate Reader - 2105-02_Inhibitor_Dose_CherryPick_Activity. [Related pubchem assays (depositor defined):AID504439]
Insulin-degrading enzyme [6] = biological target: T1, Insulin-degrading enzyme; assay: recombinant IDE activation, cell-free – biochemical, fluorescence polarization, counter-screen for IDE activator project, dose response (AID 588681)
HEK293 [7] = assay: optical interference in Abeta FP readout, dose response, artefact control for IDE activator project, biochemical, fluorescence polarization (AID 588442); assay type: functional, cell-based; conditions: Homo sapiens
[8] = biological target: T3, Low molecular weight phosphotyrosine protein phosphatase (Homo sapiens, UniProt P24666); assay type: functional; conditions: read-out: IC50_Mean;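 also: Dose-response confirmation assay measuring inhibition of LMPTP enzyme activity by fluorescence intensity read-out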
T3 sequence (P24666 whole entry): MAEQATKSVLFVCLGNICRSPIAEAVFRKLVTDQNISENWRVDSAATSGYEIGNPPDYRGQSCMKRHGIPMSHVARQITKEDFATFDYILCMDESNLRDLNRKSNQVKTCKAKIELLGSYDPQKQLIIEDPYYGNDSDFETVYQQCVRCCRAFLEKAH

Bcl-2-like protein 1 = Bcl-2-like protein 1 (Homo sapiens, UniProt Q07817); assay: blockers of BCLXL peptide binding – biochemical, fluorescence polarization, 1536-well, selectivity assay for MCL1 inhibitor project, dose response (AID 2218)
NS3 = NS3 (Hepatitis C virus, UniProt A3EZJ3); assay: PubChem AID 2173; parameters: species or system Hepacivirus hominis
[9] = biological target: T4, Mannose-6-phosphate isomerase (Homo sapiens, UniProt P34949); assay: MPI enzyme activity inhibition – biochemical, fluorescence intensity, coupled assay, primary screen (AID 1209)
T4 sequence (P34949 whole entry): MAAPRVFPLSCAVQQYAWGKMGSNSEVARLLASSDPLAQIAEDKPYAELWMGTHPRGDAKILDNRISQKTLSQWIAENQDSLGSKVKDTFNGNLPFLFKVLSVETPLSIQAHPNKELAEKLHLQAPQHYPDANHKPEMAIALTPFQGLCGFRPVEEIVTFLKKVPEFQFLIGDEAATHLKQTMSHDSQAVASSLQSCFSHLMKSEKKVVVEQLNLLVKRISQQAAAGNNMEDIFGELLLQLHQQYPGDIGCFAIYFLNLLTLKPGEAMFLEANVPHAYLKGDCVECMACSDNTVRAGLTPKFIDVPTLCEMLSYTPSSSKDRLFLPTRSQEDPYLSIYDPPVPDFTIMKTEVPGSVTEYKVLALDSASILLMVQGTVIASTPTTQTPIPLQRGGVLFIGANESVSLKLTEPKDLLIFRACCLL

[10] = biological target: Transitional endoplasmic reticulum ATPase (Homo sapiens, UniProt P55072); assay: p97 ATPase inhibitors, dose response, biochemical (AID 1534)
[11] = biological target: T5, Runt-related transcription factor 1/Core-binding factor subunit beta (Homo sapiens, UniProt Q01196+Q13951); assay: disruptors of Runt domain/CBFb-SMMHC interaction – biochemical, FRET, Cerulean-Runt, Venus-CBFb-SMMHC, uHTS, […] (AID 1434); assay type: protein assay
[12] = biological target: T6, Induced myeloid leukemia cell differentiation protein Mcl-1 (Homo sapiens, UniProt Q07820); assay: blockers of MCL1 binding to BIM peptide – biochemical, fluorescence polarization, BIM-BH3 peptide, 1536-well, dose response (AID 2217)
[13] = Late-stage probe development counterscreen for inhibitors of the Hepatitis C Virus non-structural protein 3 helicase (NS3): luminescence-based cell-based dose response assay to determine whether compounds that inhibit replication of HCV RNA replicon are cytotoxic. [Related pubchem assays (depositor defined):AID1800, AID1830, AID1845, AID1943, AID1945, AID2172, AID2173, AID2474, AID2476]; assay type: functional
[14] = biological target: T5, Runt-related transcription factor 1/Core-binding factor subunit beta; assay: Runt domain/CBFb-SMMHC interaction disruptors – biochemical, TR-FRET (AID 1438); assay type: protein assay
[15] = biological target: Transitional endoplasmic reticulum ATPase (Homo sapiens, UniProt P55072, C522A); assay: C522A mutant p97 ATPase inhibitors, dose response, counter-screen for p97 inhibitor project, biochemical, luminescence (AID 1544)
Exodeoxyribonuclease V = Exodeoxyribonuclease V (Escherichia coli (strain K12), UniProt P04993+P07648+P08394); assay: RecBCD inhibition via phage-restricted bacterial growth – absorbance, V66 E. coli, mutant T4 phage, counter-screen for AddAB inhibitor project, dose response (AID 492957); assay type: functional, cell-based, Escherichia coli str. K-12 substr. MG1655
[16] = fluconazole-exposed Candida albicans growth modulators – fluorescence, retest, confirmation (AID 2467); assay type: functional, cell-based
[17] = NIH-3T3 fibroblast cytotoxicity, dose response, cytotoxicity control, cell-based, fluorescence, Alamar Blue, secondary assay (AID 2327); assay type: functional;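 also: NIH-3T3 mouse fibroblasts cultured with fluconazole at 8 µg/mL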
[18] = Counterscreen for AddAB inhibitors: absorbance-based bacterial cell-based high throughput dose response assay for inhibitors of bacterial viability. [Related pubchem assays (depositor defined):AID435030, AID449728, AID449731, AID488942, AID488955, AID488956]; assay type: functional
[19] = biological target: T6, Induced myeloid leukemia cell differentiation protein Mcl-1; assay type: functional
Large T antigen = Large T antigen (Simian virus 40, UniProt P03070); assay type: functional, Betapolyomavirus macacae;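 also: Confirmatory-stage PubChem screen for compounds that inhibit SV40 T antigen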

Sequence of ORF 73 (O40947 whole entry): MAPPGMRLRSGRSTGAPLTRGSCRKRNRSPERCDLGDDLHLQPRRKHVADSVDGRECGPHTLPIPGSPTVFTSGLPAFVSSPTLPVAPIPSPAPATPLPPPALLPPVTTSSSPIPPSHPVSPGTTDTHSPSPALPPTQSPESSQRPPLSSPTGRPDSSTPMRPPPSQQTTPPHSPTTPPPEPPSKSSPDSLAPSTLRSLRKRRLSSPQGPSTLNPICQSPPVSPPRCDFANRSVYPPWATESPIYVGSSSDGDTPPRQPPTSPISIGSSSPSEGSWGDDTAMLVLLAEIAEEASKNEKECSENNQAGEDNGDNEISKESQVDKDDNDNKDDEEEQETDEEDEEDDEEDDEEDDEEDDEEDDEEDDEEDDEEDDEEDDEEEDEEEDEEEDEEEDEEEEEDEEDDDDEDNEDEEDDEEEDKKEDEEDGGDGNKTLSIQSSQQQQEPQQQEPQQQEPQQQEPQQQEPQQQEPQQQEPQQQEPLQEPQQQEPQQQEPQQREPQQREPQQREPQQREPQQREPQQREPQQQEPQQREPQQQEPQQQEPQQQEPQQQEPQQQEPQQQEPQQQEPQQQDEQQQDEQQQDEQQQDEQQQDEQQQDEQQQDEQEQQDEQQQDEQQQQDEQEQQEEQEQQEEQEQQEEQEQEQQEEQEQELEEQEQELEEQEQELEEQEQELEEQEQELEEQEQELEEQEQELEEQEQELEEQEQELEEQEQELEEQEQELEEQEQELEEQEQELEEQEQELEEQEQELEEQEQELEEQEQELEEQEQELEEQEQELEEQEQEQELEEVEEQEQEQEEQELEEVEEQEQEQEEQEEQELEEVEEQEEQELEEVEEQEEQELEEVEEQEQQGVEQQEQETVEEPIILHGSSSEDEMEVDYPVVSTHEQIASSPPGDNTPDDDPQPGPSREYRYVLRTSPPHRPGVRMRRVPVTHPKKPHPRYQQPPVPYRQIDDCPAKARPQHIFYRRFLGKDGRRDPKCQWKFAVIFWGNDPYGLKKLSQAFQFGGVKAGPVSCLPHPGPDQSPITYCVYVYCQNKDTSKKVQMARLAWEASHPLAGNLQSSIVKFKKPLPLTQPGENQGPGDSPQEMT
T5 sequence (Q01196 whole entry, the tested form may be a part): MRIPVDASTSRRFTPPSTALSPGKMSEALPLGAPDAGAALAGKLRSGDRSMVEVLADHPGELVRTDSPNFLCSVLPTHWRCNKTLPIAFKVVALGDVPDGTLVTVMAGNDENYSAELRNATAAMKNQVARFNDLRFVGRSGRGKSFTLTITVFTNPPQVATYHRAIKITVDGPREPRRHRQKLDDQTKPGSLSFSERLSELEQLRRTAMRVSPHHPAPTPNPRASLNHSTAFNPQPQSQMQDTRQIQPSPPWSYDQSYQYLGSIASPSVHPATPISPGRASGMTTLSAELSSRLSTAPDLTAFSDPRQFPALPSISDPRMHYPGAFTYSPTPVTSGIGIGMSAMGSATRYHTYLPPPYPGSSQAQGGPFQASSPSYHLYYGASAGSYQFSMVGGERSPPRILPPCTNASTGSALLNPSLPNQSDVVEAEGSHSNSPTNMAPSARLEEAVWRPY
T5 sequence (Q13951 whole entry, the tested form may be a part): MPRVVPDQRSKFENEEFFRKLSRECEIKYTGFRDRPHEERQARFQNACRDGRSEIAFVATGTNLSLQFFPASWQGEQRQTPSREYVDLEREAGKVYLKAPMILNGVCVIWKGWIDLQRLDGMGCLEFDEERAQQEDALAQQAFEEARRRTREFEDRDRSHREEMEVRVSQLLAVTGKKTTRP
T6 sequence (Q07820 whole entry): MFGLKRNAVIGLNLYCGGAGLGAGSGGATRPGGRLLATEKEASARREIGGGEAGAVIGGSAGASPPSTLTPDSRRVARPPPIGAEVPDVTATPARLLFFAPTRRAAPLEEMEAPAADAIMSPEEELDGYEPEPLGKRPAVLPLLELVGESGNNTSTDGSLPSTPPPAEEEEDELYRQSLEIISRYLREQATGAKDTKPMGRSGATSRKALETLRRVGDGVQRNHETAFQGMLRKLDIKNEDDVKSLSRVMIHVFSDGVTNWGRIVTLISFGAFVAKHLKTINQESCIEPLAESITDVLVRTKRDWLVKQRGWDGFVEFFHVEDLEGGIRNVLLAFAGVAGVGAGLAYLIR
Sequence of Exodeoxyribonuclease V (P04993 whole entry): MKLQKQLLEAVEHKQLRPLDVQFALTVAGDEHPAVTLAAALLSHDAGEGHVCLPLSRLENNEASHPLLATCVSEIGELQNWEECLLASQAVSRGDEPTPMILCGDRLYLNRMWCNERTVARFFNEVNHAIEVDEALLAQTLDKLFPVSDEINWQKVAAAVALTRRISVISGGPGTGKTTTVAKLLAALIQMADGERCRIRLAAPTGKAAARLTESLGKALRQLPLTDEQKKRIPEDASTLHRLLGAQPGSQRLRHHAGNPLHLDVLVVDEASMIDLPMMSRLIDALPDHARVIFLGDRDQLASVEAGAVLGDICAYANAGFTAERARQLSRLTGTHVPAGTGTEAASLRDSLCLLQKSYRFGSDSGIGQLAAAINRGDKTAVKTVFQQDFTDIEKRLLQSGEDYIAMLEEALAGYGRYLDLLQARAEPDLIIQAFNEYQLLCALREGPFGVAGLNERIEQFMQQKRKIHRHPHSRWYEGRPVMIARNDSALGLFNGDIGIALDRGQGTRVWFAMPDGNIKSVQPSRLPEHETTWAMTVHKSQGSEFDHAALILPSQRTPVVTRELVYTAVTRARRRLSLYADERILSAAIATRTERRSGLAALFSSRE
Sequence of Exodeoxyribonuclease V (P07648 whole entry): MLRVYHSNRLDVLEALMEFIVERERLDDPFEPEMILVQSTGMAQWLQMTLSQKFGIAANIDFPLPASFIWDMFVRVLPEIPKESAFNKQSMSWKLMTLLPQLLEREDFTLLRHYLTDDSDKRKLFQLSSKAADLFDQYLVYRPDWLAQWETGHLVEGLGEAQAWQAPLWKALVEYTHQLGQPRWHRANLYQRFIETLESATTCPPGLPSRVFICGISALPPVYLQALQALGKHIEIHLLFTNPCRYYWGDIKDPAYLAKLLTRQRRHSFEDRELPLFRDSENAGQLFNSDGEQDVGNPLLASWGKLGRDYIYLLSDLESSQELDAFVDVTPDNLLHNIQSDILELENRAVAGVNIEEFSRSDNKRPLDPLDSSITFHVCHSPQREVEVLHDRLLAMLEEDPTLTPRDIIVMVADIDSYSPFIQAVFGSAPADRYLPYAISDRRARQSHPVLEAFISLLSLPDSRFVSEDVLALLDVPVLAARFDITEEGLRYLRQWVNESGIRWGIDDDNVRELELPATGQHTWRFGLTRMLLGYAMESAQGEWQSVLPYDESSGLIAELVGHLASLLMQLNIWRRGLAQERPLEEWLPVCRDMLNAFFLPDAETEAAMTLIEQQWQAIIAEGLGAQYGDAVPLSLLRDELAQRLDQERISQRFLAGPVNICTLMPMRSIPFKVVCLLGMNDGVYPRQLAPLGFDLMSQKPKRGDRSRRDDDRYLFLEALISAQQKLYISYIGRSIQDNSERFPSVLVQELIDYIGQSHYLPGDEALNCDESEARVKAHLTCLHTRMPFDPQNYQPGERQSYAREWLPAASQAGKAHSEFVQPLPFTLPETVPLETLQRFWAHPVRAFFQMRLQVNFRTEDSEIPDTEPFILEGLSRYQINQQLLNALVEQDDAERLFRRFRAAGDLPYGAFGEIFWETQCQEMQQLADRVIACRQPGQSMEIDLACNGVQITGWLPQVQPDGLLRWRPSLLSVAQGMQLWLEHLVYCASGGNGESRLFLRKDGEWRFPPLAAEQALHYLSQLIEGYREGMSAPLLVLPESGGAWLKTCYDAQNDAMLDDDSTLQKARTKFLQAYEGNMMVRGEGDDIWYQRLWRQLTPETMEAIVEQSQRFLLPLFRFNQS
Sequence of Exodeoxyribonuclease V (P08394 whole entry): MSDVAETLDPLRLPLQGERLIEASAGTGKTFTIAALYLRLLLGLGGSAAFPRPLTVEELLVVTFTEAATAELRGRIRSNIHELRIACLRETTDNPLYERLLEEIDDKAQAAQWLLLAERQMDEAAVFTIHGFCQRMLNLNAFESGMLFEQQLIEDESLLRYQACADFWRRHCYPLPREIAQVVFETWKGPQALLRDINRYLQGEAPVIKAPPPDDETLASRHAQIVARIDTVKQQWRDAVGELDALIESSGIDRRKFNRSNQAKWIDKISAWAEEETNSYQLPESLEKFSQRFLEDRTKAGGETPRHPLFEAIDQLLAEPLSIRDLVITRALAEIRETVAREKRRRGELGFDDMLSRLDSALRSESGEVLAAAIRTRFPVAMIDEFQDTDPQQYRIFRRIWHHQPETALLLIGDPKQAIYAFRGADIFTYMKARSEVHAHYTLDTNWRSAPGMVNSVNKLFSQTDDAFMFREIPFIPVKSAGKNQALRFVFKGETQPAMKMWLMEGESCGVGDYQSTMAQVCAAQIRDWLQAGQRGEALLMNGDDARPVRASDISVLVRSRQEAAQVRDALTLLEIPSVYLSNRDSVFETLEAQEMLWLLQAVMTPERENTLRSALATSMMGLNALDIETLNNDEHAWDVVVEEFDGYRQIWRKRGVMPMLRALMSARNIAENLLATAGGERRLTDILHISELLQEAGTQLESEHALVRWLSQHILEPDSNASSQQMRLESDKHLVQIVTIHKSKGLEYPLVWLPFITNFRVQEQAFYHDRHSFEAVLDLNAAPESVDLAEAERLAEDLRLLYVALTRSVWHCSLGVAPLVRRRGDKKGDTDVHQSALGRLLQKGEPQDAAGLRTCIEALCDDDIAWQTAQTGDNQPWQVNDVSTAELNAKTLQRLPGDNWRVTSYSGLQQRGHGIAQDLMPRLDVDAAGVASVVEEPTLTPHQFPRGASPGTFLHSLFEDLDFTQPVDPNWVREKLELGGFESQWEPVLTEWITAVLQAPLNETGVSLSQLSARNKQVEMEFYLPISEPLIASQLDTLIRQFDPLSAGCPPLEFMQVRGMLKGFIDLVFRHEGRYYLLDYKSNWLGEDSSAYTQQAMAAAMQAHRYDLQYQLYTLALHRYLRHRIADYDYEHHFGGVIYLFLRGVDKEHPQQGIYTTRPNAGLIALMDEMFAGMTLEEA

Question: Which AC50 (Keap1/Nrf2) does the source give for `Oc1ccc2nnc3c(Br)cnn3c2c1` here?
Answer: 16.1 µM (active)

Question: And the IC50 (Beta Lactamase)?
Answer: 6.63 µM (active)

Question: What about the AC50 (ORF 73) of the same compound?
Answer: 6.64 µM (active)

Question: And the AC50 [1]?
Answer: 1.11 µM (active)

Question: And the IC50 (CHO)?
Answer: > 49.8 µM (inactive)

Question: What does the source list for `CCOc1ccc2noc3c2c1C(=O)c1ccccc1-3`?
Answer: EC50 (Insulin-degrading enzyme [2]): > 54.7 µM (inactive); IC50 (HEK293 [3]): > 89.1 µM (inactive); IC50 [4]: 87.4 µM (active); AC50 [5]: 0.356 µM (active); AC50 (ORF 73): 0.572 µM (active); EC50 (Insulin-degrading enzyme [6]): > 54.7 µM (inactive); EC50 (HEK293 [7]): 4.95 µM (active)

Question: With `COc1cccc(-n2c(SCc3cc(=O)oc4cc(O)c(O)cc34)nc3ccccc3c2=O)c1` as the compound, how does the IC50 [8] read?
Answer: 53.1 µM (inactive)

Question: And the IC50 (Bcl-2-like protein 1)?
Answer: > 109 µM (not active)

Question: And the IC50 (NS3)?
Answer: 2.31 µM (active)

Question: What about the IC50 [9] of the same compound?
Answer: 15.6 µM (active)

Question: What about the IC50 [10] of the same compound?
Answer: 21.1 µM (not active)

Question: And the IC50 [11]?
Answer: 2 µM (active)

Question: And the IC50 [12]?
Answer: > 109 µM (not active)

Question: What about the CC50 [13] of the same compound?
Answer: > 100 µM (inactive)

Question: And the IC50 [14]?
Answer: 19.3 µM (active)

Question: What about the IC50 [15] of the same compound?
Answer: > 50 µM (not active)

Question: And the IC50 (Exodeoxyribonuclease V)?
Answer: > 119 µM (inactive)

Question: What about the EC50 [16] of the same compound?
Answer: > 38 µM (not active)

Question: What about the EC50 [17] of the same compound?
Answer: > 150 µM (inactive)

Question: And the IC50 [18]?
Answer: > 119 µM (inactive)

Question: And the IC50 [19]?
Answer: 2.72 µM (active)

Question: What about the IC50 (Large T antigen) of the same compound?
Answer: > 100 µM (active)
